For one series, the system named is rats. As to the kind of experiment: Anxiolytic effect, elevated plus-maze assay. It is filed as in vivo. As for the experimental part: The anxiolytic effect of carbetocin and oxytocin was tested using the elevated plus-maze assay in rats as described in Holmes, A., et al., Behav. Neurosci. 115(5):1129-44, 2001. See also Sahuque, L., et al., Psychopharmacology 186(1):122-132, Berl, 2006; Carvalho, M. C., et al., Braz. Med. Biol. Res. 38(12):1857-66, 2005; and Langen, B., et al., J. Pharmacol. Exp. Ther. 314:717-724, 2005. Alprazolam, a known anxiety drug, was also included in the study. Sixty male, 6-10 week old experimentally naïve rats obtained from the Charles River laboratories were divided into six groups of ten animals each. All animals were maintained in compliance with the standards of the National Research Council and were fed certified rodent diet (Teklad, Madison, Wis.) and water ad libitum. The animals were housed in a dedicated study room with 12 hour light/12 hour dark at RT 18 to 26° C. and 30-70% humidity. Study animals were acclimated to their housing for at least 5 days prior to the first day of dosing. Routes of administration included intracerebroventricular (ICV), intraperitoneal (IP), or intramuscular (IM).
For the anxiolytic study, all groups were dosed by injection with formulations that contained the appropriate API in 0.9% saline solution. Alprazolam was an oral solution dosage form and diluted to the desired concentration in 0.9% saline for the anxiolytic study, Alprazolam Intensol™ Oral Solution (Concentrate) 1 mg/ml (each ml contains 1 mg Alprazolam).
The dosing preparations were administered once to each rat as a bolus. In the ICV administration group, test doses were administered into the lateral ventricle through a port in the already implanted ICV cannula. Testing was conducted 20 minutes after ICV and 30 minutes after IM and IP. The animals were tested for 15 minutes on the maze immediately following transport from the home cage.
The elevated plus maze consisted of a platform with 4 arms, two open and two closed (50×10×50 cm enclosed with an open roof). Rats were tested two at a time and placed by hand in the center of the platform of two separate mazes, at the crossroad of the 4 arms, facing one of the open arms. After fifteen minutes, the first rat was left for a few seconds until the second rat's fifteen minutes was completed. The rats were monitored remotely.
Prior to each rat's test, the plus-maze surfaces and closed sides were cleaned. Rats were handled by gloved hands. The time from removal from the home cage to start of testing was less than 15 seconds. Rats were gently removed from the home cage and placed onto the center square between the open and closed arms, and facing the opposite open arm. The rats were facing away from the experimenter. The experimenter moved away from the maze to an area not visible to the rat(s) and viewed the rat(s) via television monitor. At the end of the test the recorder was stopped and the rat(s) removed from the maze.
The rats were evaluated for time spent in open arm exploration (Open Time), time spent in closed arm exploration (Closed Time) and scored for anxiety according to the percent of time spent in open arm exploration ([time spent in open arms/time spent in open arms+time spent in closed arms×100]) (Open Time %); the absolute time spent in open arm exploration; and the percent of open arm entries ([number of open arm entries/number of open arm entries+number of closed arm entries]×100). The number of total arm entries was used as a measure of overall locomotor activity. The scores were compared to the vehicle controls and to the baseline using one-way ANOVA followed by the appropriate post-hoc test (Bonferroni/Dunnets) and a p<0.05 was considered to be statistically significant.

For series [1] the following is noted: human, in vivo, inhaled or intranasal, 150 ug.
Description: (§2) In this second clinical trial, three concentrations of carbetocin were manufactured based on the formulation disclosed in Table 38 in order to provide a carbetocin dose of 150 μg, 250 μg, and 400 μg. Blood samples for PK analysis of carbetocin and oxytocin levels were collected in EDTA coated blood collection tubes from patients. Aprotinin was immediately added and the samples were centrifuged to obtain plasma samples. Intranasal (IN) formulation of carbetocin were dosed using a 100 μl actuator in 12 healthy, human subjects at three strengths (1.5, 2.5, and 4.0 mg/ml) and compared to intramuscular (IM) dose of Duratocin® (Carbetocin Injection). An additional comparison to the commercially available version of intranasal oxytocin (Syntocinon Spray®) was also conducted. Blood samples were taken periodically between t=0 (predose) and 6 hrs.
Series [2] is described as follows: clinical. The note with it: human, in vivo; for AUC(0-t) / Tmax: inhaled or intranasal.
Description: In this human clinical study (cross-over, dose escalating), the intranasal (IN) formulation of carbetocin was administered (a single dose) to 12 healthy human subjects (18-65 years old) at three strengths (150, 300, and 500 μg per dose) and compared to the 50 μg dose of Duratocin® administered by intramuscular injection (IM). Blood samples were taken periodically between t=0 (predose) and 6 hrs after dosing.
Another series can be described thus: in vivo. The note with it: rabbit, inhaled or intranasal, 60 ug.
Series [3] in a line: clinical. The note with it: human, in vivo; for Cmax / Tmax / AUC(0-t): inhaled or intranasal.
Description: as §2
For series [4] the following is noted: in vivo; cited from earlier work.
Series [5] concerns tracheal/bronchial epithelial cell membrane inserts (EpiAirway). Put plainly: Cell viability, MTT assay. The series is classed as cell-based. Particulars: Rabbit Pharmacokinetic Study 3 formulations. As for the experimental part: Cell viability was assessed using an MTT assay kit (MatTek Corp., Ashland, Mass.). MTT concentrate was thawed and diluted with media at a ratio of 2 ml MTT:8 ml media. 300 μl MTT-media mix was added to each well of a 24 well plate. Tissue culture inserts were drained and transferred to the MTT containing well and incubated at 37° C. in the dark for three hours. After incubation, each insert was removed from the plate, and then immersed in the wells of a fresh 24-well plate containing 2 ml extractant solution. The plate was then covered and incubated overnight at room temperature in the dark. The liquid in each insert was then decanted back into the well from which it was taken and the insert was discarded. 50 μl of the exractant solution from each well was then pipetted in triplicate into a 96 well plate and diluted with the addition of 150 μl of fresh extractant solution. The optical density of the samples was then measured at 550 nm on a Spectramax plate reader (Molecular Devices, Sunnyvale, Calif.) using SpectraPro software.
(Formazan colour is commonly taken as a measure of viable cells.)

For series [6] the test system is unchanged. Put plainly: Cytotoxicity, LDH assay (apical and basolateral). It is filed as cell-based. The note with it: Rabbit Pharmacokinetic Study 3 formulations. As for the experimental part: (§1) 200 μl of fresh media was gently added to each tissue insert in the 24 well plate and the plate was placed no a shaker table at room temperature for 5 minutes. 150 μl of apical solution was removed from each insert and reserved for a […] dehydrogenase assay. The inserts were then washed with 300 μl of media; 300 μl of new media was added to each insert, the inserts were incubated for 20 minutes at room temperature and the transepithelial electrical resistance was measured.
The inserts are then transferred into a new 24 well plate containing no media and the appropriate amount of media was added to the apical surface in order to total 300 μl. The inserts were then shaken for five minutes at 100 RPM at room temperature. 50-100 μl of the apical media were then removed, placed in […] and kept at 2-8° C. until needed.
The samples were then centrifuged at 1000 rpm for 5 minutes. 2 μl of the supernatant was removed and added to a 96 well plate. 48 μl of media was then used to dilute the supernatant to make a 25× dilution and each sample was assayed in triplicate for LDH loss using a CytoTox 96 Cytotoixcity Assay Kit (Promega Corp., Madison, Wis.).
For analysis of the basolateral media, 50 μl of the reserved 150 μl solution was loaded into a 96 well assay plate and assayed in triplicate.

Series [7] has the same test system. Put plainly: Transepithelial electrical resistance (TER). The series is classed as cell-based. The note with it: Rabbit Pharmacokinetic Study 3 formulations. As for the experimental part: Tracheal/bronchial epithelial cell membrane inserts (EpiAirway, MatTek Corp., Ashland, Mass.) were received the day before the experiment. Each tissue insert was placed in a well of a 6 well plate which contained 0.9 ml of serum free media and cultured at 37° C. for 24 hours to allow the tissues to equilibrate. The day of the experiment, transepithelial electrical resistance measurements were taken for each insert using a Tissue Resistance Measurement Chamber connected to an Epithelial Voltohmeter (World Precision Instruments, Inc., Sarasota, Fla.).
as §1

Where [8] appears, read: IP route, tested 30 minutes after dosing.
Setting [9] is: ICV route, tested 20 minutes after dosing.
Where [10] appears, read: IM route, tested 30 minutes after dosing.

*1 amine or outer side, *2 acyl side, *3 side chain or, on linkers, in order; H or OH if unused. Where a SMILES comes first, the peptide text is derived from it. Bridges are numbered along the chain shown (N, C = ends). X1 = O=C(CCC[*:2])[*:1]

A word on the Cmax: it is the maximum level reached in the sampled fluid or tissue. A word on the half-life: it is how long it takes for the measured level to halve. The low end stands for rapid decline, the high end for slow decline. Broadly, the bioavailability is dose-corrected exposure relative to a reference, in per cent. The term AUC(0-t) denotes the area under the concentration-time curve up to a stated or last time point. What is called Tmax is the time from dosing to the highest level.

Description for in vivo: In this Example, eight groups of rabbits were dosed with the formulations presented in Table 34; group 1 received intramuscular (IM) carbetocin injection at 30 μg dose, while the remaining 7 groups received the 60 μg doses of intranasal (IN) carbetocin nasal spray formulations.
Briefly, in this rabbit PK study 3, Group 1 represents a control intramuscular injection; Group 2 represents a formulation used for our first human clinical study. […] In context with formulation #5, the design of this experiment is intended to further confirm the effect of CMC-LV on BA.
For this experiment, 25 ml of each intranasal (IN) formulation was prepared. All IN formulations were stored in 3×1 ml aliquots in 1cc amber glass bottles. Also, 400 ml of the intramuscular (IM) formulation was prepared and stored in 3×3 mL aliquots in 3 cc clear glass bottles. All formulations were stored at 2-8° C.

Take `Cc1nnc2n1-c1ccc(Cl)cc1C(c1ccccc1)=NC2` [Alprazolam]: in the series with rats (setting [8]), the “Closed Time” value worked out at 116.55, the “Open Time” value stood at 46.07 and the “Open Time (%)” value was 27.9%.

On to `CC[C@H](C)[C@@H]1NC(=O)[C@H](Cc2ccc(O)cc2)NC(=O)[C@@H](N)CSSC[C@@H](C(=O)N2CCC[C@H]2C(=O)N[C@@H](CC(C)C)C(=O)NCC(N)=O)NC(=O)[C@H](CC(N)=O)NC(=O)[C@H](CCC(N)=O)NC1=O` [Oxytocin], for which, in the series with rats (setting [9]), the “Closed Time” value came to 158.42, the “Open Time” value is recorded as 17.89 and the “Open Time (%)” value worked out at 11.3%. In addition, in the series on rats (setting [10]), the “Closed Time” value worked out at 159.47, the “Open Time” value amounted to 14.54 and the “Open Time (%)” value is listed as 8.6%.

As to `CC[C@H](C)[C@@H]1NC(=O)[C@H](Cc2ccc(OC)cc2)NC(=O)CCCSC[C@@H](C(=O)N2CCC[C@H]2C(=O)N[C@@H](CC(C)C)C(=O)NCC(N)=O)NC(=O)[C@H](CC(N)=O)NC(=O)[C@H](CCC(N)=O)NC1=O` [carbetocin, 1-butanoic acid-2-(O-methyl-L-tyrosine)-1-carbaoxytocin] (Y(Me)IQNCPLG-NH2; linker N-5 via X1 (inferred)), the AUClast in series [1] is reported as 13697 (121) min*pg/ml. The maximum concentration (Cmax) worked out at 0.32 ng/mL in “clinical [2]” (150 ug); 0.43 ng/mL in “clinical [2]” (300 ug); 0.74 ng/mL in the series “clinical [2]” (500 ug); 0.222 ng/mL in “clinical [3]” (150 ug); 0.377 ng/mL in “clinical [3]” (250 ug); 0.608 ng/mL in “clinical [3]” (400 ug). Further, the half-life in the series “clinical [2]” (150 ug) worked out at 33 min; in the series “clinical [2]” (300 ug), 46 min; in “clinical [2]” (500 ug), 42 min. The bioavailability in “clinical [2]” (im, Bioavailability) came out at 6%; in “clinical [3]” (150 ug) it was 7%; in “clinical [3]” (250 ug), 6%; in the series “clinical [3]” (400 ug), 7%. Moreover, the AUC(0-t) in the series “clinical [2]” (150 ug) is 0.2 ng·h/mL; in “clinical [2]” (300 ug), 0.25 ng·h/mL; in the series “clinical [2]” (500 ug), 0.717 ng·h/mL; in the series “clinical [3]” (250 ug), 0.302 ng·h/mL; in the series “clinical [3]” (400 ug) it was 0.542 ng·h/mL. In addition, the Tmax is 10 min in “clinical [2]” (300 ug); 18.6 min in “clinical [2]” (500 ug); 15 min in “clinical [3]” (150 ug); 18 min in the series “clinical [3]” (250 ug); 13 min in “clinical [3]” (400 ug). Moreover, the F rel in the series “in vivo” is around 9%. For the same compound, the “half-life relative to that of oxytocin” value in [4] is listed as 4-10 times.

As for Triton, the MTT % in [5] is given as 1.4%. For the same compound, the “Apical LDII %” value in series [6] (apical) was 100.0%. Further, the “Basolateral LDH %” value in series [6] (basolateral) is given as 100.0%. In addition, the “TER T = 0” value in series [7] (T = 0) is reported as 504.4 ohm × cm^2. In addition, in [7] (T = 60 min), the “TER T = 60 min” value stood at 0.2 ohm × cm^2.

These data come from US9023793B2, “Intranasal carbetocin formulations and methods for the treatment of autism” (Retrophin, Inc., priority 2006, dated 2015).
